Data published in patent publication US20240051952A1, “HMOX1 INDUCERS” (Mitobridge Inc., priority 2019, published 2024).

System: Human Heme Oxygenase-1 (HMOX-1)
Assay: ELISA assay to measure human heme oxygenase-1 (HMOX-1) in HepG2 lysate
Assay type: cell-based
Conditions: fold change of human HMOX1 protein levels relative to DMSO control, HepG2
How it was run: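 HO-1 protein quantified by chemiluminescent sandwich ELISA against a 2-fold standard series starting at 20 ng/ml. Samples were 1:20-diluted HepG2 lysates made in Triton X-100/EDTA buffer with protease inhibitors. Capture antibody coated at 8 μg/ml, detection antibody used at 200 ng/ml, room-temperature (20 °C) steps.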

| Compound | Maximum Fold induction |
| --- | --- |
| CC(O)CNC(=O)c1ccc2c(c1)nc(Nc1nc3ccc(C(F)(F)F)cc3o1)n2C (stereo not drawn) [Example 35, N-(2-hydroxypropyl)-1-methyl-2-((6-(trifluoromethyl)benzo[d]oxazol-2-yl)amino)-1H-benzo[d]imidazole-5-carboxamide] | 37 |
| Cn1c(Nc2nc3ccc(OC4CCOCC4)cc3o2)nc2cc(C(=O)NCCOCCO)ccc21 [Example 138, N-(2-(2-hydroxyethoxy)ethyl)-1-methyl-2-((6-((tetrahydro-2H-pyran-4-yl)oxy)benzo[d]oxazol-2-yl)amino)-1H-benzo[d]imidazole-5-carboxamide] | 20 |
| COCCNC(=O)c1ccc2c(c1)nc(Nc1nc3cc(Cl)ccc3[nH]1)n2C [Example 83, 2-((5-chloro-1H-benzo[d]imidazol-2-yl)amino)-N-(2-methoxyethyl)-1-methyl-1H-benzo[d]imidazole-5-carboxamide] | 16-21 |
| CC(=O)N1CCc2nc(Nc3nc4cc(C(=O)NCCOCCO)ccc4n3C)sc2C1 [Example 10, 2-((5-acetyl-4,5,6,7-tetrahydrothiazolo[5,4-c]pyridin-2-yl)amino)-N-(2-(2-hydroxyethoxy)ethyl)-1-methyl-1H-benzo[d]imidazole-5-carboxamide] | 2 |
| CC(C)c1ccc2nc(Nc3nc4cc(C(=O)O)ccc4n3C)oc2c1 [Example 59, 2-((6-isopropylbenzo[d]oxazol-2-yl)amino)-1-methyl-1H-benzo[d]imidazole-5-carboxylic acid] | 30 |
| CC1CCc2nc(Nc3nc4cc(C(=O)NOCCO)ccc4n3C)sc2C1 (stereo not drawn) [Example 131, N-(2-hydroxyethoxy)-1-methyl-2-((6-methyl-4,5,6,7-tetrahydrobenzo[d]thiazol-2-yl)amino)-1H-benzo[d]imidazole-5-carboxamide] | 35-62 |
| O=C(O)c1ccc2c(c1)nc(Nc1nc3ccc(OC(F)(F)F)cc3o1)n2C1CCOCC1 [Example 79, 1-(tetrahydro-2H-pyran-4-yl)-2-((6-(trifluoromethoxy)benzo[d]oxazol-2-yl)amino)-1H-benzo[d]imidazole-5-carboxylic acid] | 27-51 |
| CCn1c(Nc2nc3ccc(OC(F)(F)F)cc3o2)nc2cc(C(=O)O)ccc21 [Example 84, 1-ethyl-2-((6-(trifluoromethoxy)benzo[d]oxazol-2-yl)amino)-1H-benzo[d]imidazole-5-carboxylic acid] | 17 |
| COCCNC(=O)c1ccc2c(c1)nc(Nc1nc3ccc(C4CC4)cc3o1)n2C [Example 116, 2-((6-cyclopropylbenzo[d]oxazol-2-yl)amino)-N-(2-methoxyethyl)-1-methyl-1H-benzo[d]imidazole-5-carboxamide] | 32-38 |
| Cn1cc(NC(=O)c2ccc3c(c2)nc(Nc2nc4ccc(OC(F)(F)F)cc4o2)n3C)cn1 [Example 50, 1-methyl-N-(1-methyl-1H-pyrazol-4-yl)-2-((6-(trifluoromethoxy)benzo[d]oxazol-2-yl)amino)-1H-benzo[d]imidazole-5-carboxamide] | 12-18 |
| Cn1c(Nc2nc3ccc(OC(F)(F)F)cc3o2)nc2cc(C(=O)NCCS(C)(=O)=O)ccc21 [Example 54, 1-methyl-N-(2-(methylsulfonyl)ethyl)-2-((6-(trifluoromethoxy)benzo[d]oxazol-2-yl)amino)-1H-benzo[d]imidazole-5-carboxamide] | 31-37 |
| Cn1c(Nc2nc3ccc(OC(F)(F)F)cc3o2)nc2cc(C(=O)NC(CO)(CO)CO)ccc21 [Example 47, N-(1,3-dihydroxy-2-(hydroxymethyl)propan-2-yl)-1-methyl-2-((6-(trifluoromethoxy)benzo[d]oxazol-2-yl)amino)-1H-benzo[d]imidazole-5-carboxamide] | 13-16 |
